Reference: article PMC7778606, “Development of the phenylpyrazolo[3,4-d]pyrimidine-based, insulin-like growth factor receptor/Src/AXL-targeting small molecule kinase inhibitor” (Theranostics, 2021)
Where two headings read alike, the source gives them in different places.

What was measured:
A549 cells = test: MTT assay, viability of A549 cells; assay type: cell-based; conditions: Homo sapiens
Experimental: (§1) Cells were seeded into 96-well plates at a density of 1-2 × 10^3 cells/well and incubated for 24 h. Cells were treated with vehicle or various concentrations of test compounds for two (PC9 and PC9/ER cells) or three (other cells) days. Cells were further incubated with MTT solution (final concentration of 500 μg/mL) for 4 h at 37 °C. The formazan products were dissolved in dimethyl sulfoxide (DMSO), and the absorbance was measured at 570 nm. The data are presented as a percentage of the control group.

H1993 cells = test: MTT assay, viability of H1993 cells; assay type: cell-based; conditions: Homo sapiens, NCI-H1993, 72 h, three days, read-out: IC50 against the viability
Experimental: as §1

AURKB = biological target: T1, AURKB (Homo sapiens, UniProt Q96GD4); test: KINOMEscan competition binding assay; conditions: LL6 at 10 μM; read-out: Percent Control
T1 construct: purchased DiscoverX KINOMEscan
T1 sequence (Q96GD4 whole entry): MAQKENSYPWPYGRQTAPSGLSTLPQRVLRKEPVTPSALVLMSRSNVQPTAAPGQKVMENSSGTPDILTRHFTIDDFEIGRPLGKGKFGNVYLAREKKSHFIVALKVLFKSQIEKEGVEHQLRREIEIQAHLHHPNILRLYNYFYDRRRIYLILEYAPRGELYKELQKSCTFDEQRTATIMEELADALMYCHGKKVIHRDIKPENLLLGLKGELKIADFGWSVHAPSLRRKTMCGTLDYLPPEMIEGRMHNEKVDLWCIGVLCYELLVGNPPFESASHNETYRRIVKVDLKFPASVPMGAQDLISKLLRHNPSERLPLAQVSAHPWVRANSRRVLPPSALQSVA
Experimental: (§2) To briefly summarize, Kd was measured by a competition binding assay that quantitatively measures the ability of a compound to compete with an immobilized ligand. […] Dose response curves of 11 points are obtained for Kd values, which are measured in duplicate. See more details in the cited references [39]-[42] and see also at www.discoverx.com.

ABL1-nonphosphorylated = biological target: T2, ABL1-nonphosphorylated (Homo sapiens, UniProt P00519); test: KINOMEscan competition binding assay; conditions: LL6 at 10 μM; read-out: Percent Control
T2 construct: purchased DiscoverX KINOMEscan
T2 sequence (P00519 whole entry): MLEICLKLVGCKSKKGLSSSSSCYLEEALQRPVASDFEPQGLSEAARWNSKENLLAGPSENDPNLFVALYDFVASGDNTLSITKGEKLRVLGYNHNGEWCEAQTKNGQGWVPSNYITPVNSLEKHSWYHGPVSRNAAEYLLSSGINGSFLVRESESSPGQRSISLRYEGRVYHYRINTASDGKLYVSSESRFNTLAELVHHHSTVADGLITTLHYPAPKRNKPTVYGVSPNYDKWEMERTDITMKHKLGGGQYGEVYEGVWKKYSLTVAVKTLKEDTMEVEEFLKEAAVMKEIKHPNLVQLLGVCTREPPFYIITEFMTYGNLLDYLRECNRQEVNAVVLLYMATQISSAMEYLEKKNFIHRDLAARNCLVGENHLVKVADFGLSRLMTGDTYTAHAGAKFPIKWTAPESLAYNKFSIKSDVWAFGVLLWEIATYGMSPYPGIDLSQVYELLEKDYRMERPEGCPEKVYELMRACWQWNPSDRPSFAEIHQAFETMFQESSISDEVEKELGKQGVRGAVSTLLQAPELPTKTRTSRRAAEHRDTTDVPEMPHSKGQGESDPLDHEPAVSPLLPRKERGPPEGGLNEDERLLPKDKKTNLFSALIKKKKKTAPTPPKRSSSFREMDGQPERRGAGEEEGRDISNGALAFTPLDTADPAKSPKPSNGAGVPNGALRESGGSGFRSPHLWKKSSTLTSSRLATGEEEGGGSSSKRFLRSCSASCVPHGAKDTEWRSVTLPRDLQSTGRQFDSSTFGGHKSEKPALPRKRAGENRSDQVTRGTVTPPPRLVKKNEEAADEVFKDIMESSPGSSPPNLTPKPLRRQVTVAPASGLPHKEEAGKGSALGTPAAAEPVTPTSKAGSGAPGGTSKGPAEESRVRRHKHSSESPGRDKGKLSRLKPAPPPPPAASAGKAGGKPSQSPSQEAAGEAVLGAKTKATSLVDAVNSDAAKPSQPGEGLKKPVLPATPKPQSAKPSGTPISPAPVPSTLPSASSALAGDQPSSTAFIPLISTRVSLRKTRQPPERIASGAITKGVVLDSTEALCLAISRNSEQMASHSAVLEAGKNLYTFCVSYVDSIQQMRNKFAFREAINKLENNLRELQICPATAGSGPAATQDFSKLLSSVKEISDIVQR
Experimental: as §2

ABL1-phosphorylated = biological target: T3, ABL1-phosphorylated (Homo sapiens, UniProt P00519); test: KINOMEscan competition binding assay; conditions: LL6 at 10 μM; read-out: Percent Control
T3 construct: purchased DiscoverX KINOMEscan
T3 sequence (P00519 whole entry): as above
Experimental: as §2

AKT2 = biological target: T4, AKT2 (Homo sapiens, UniProt P31751); test: KINOMEscan competition binding assay; conditions: LL6 at 10 μM; read-out: Percent Control
T4 construct: purchased DiscoverX KINOMEscan
T4 sequence (P31751 whole entry): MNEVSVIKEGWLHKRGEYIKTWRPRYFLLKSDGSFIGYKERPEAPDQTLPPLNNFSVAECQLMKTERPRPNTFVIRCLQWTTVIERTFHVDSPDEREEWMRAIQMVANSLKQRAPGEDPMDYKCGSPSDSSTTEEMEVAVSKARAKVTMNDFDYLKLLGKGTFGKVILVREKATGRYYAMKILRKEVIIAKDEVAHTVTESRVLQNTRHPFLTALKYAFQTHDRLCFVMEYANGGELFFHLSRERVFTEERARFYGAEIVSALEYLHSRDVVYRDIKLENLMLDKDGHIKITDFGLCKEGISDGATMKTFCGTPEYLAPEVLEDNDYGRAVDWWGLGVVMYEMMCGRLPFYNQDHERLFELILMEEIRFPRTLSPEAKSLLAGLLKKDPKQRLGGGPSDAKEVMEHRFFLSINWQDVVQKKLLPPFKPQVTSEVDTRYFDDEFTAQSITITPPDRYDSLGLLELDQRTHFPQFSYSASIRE
Experimental: as §2

[1] = biological target: T5, ABL1(E255K)-phosphorylated (Homo sapiens, UniProt P00519, E255K); test: KINOMEscan competition binding assay; conditions: LL6 at 10 μM; read-out: Percent Control
T5 construct: purchased DiscoverX KINOMEscan
T5 sequence (P00519 whole entry E255K): as the sequence (P00519 whole entry) above, with E255K counted along it
Experimental: as §2

AKT1 = biological target: T6, AKT1 (Homo sapiens, UniProt P31749); test: KINOMEscan competition binding assay; conditions: LL6 at 10 μM; read-out: Percent Control
T6 construct: purchased DiscoverX KINOMEscan
T6 sequence (P31749 whole entry): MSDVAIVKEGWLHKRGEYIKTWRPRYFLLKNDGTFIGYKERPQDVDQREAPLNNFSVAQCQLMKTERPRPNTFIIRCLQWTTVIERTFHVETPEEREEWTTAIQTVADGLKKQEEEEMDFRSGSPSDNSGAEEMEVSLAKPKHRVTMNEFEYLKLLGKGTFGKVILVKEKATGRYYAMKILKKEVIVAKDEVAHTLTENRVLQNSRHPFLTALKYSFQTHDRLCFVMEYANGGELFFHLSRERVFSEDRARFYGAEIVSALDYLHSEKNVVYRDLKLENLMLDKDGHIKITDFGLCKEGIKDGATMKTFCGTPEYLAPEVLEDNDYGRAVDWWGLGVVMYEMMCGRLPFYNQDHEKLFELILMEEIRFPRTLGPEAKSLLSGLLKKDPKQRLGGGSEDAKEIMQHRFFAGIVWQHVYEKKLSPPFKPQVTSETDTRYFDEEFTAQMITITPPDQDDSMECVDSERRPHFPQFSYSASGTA
Experimental: as §2

NSCLC cells = test: Anchorage-independent (soft agar) colony formation assay; assay type: cell-based, human; conditions: subset of NSCLC cells
Experimental: Cells (2-3 × 10^3 cells/well) were mixed with sterile 1% agar solution (final concentration of 0.4%) and poured onto 1% base agar in 24-well plates. After solidification of the top agar, LL6 was diluted in complete medium and added to the agar. Cells embedded in the top agar were incubated for 10-14 days at 37 °C with 5% CO2. The LL6-containing medium was changed twice a week. After incubation, the colonies were stained with MTT solution, imaged, and counted using ImageJ software (National Institutes of Health, Bethesda, […], USA).

LLC allografts = test: Spontaneous lung metastasis of LLC allografts; assay type: in vivo, C57BL/6 mice; conditions: 80 mg/kg orally, daily for 2 weeks
Experimental: We used the IVIS-Spectrum microCT and Living Image (ver. 4.2) software (PerkinElmer, Alameda, CA, USA) for monitoring metastatic tumor formation in the lungs. The instrument was operated according to the manufacturer's instruction. To facilitate the detection of photons emitted from metastatic lung tumors, we performed ex vivo imaging analysis. In brief, mice were injected at 60 mg/kg with the 15 mg/mL stock of luciferin prior to anesthesia. After 10-15 min, mice were euthanized, and lung tissues were excised and placed into a 60 mm dish. Tissues were immediately imaged after exposure for 1 min.

H1299 cells = test: MTT assay, viability of H1299 cells; assay type: cell-based; conditions: Homo sapiens, NCI-H1299, 72 h, three days, read-out: IC50 against the viability
Experimental: as §1

IGF-1R = test: Western blot, phosphorylation of IGF-1R in H1944 and A549 cells; assay type: cell-based, human; conditions: 2.5 μM
Experimental: (§3) Before harvesting, the cells were stimulated with 10% FBS for 20 min. Total cell lysates were prepared with modified radioimmunoprecipitation assay lysis buffer (50 mM Tris-HCl [pH 7.4], 150 mM NaCl, 1 mM EDTA, 0.25% sodium deoxycholate, 1% Triton X-100, 100 mM NaF, 5 mM Na3VO4, 1 mM PMSF, 1 μg/mL aprotinin, 1 μg/mL leupeptin, and 1 μg/mL pepstatin). Equal amounts of protein (20 μg) were subjected to 8% SDS-PAGE and electrically transferred onto polyvinylidene difluoride membranes (Bio-Rad Laboratories, Hercules, CA, USA). Membranes were blocked with blocking buffer (3% BSA in Tris-buffered saline containing 0.1% Tween-20 [TBST]) for 1 h at room temperature. The membranes were incubated with primary antibodies diluted in 3% BSA in TBST (1:1,000) overnight at 4 °C, washed multiple times with TBST, and incubated with secondary antibodies diluted in 3% nonfat dry milk in TBST (1:5,000) for 1 h at room temperature. The membranes were washed multiple times with TBST and visualized using an enhanced chemiluminescence detection kit (Thermo Fisher Scientific). Densitometric analysis was performed using ImageJ software.

PC9 cells = test: MTT assay, viability of PC9 cells; assay type: cell-based; conditions: Homo sapiens, PC-9, 48 h, two days, 5% FBS, read-out: IC50 against the viability
Experimental: as §1

[2] = test system: H1944 and A549 NSCLC cells; test: Apoptosis (PARP cleavage, chromatin condensation, sub-G1 phase); assay type: cell-based, human; conditions: LL6 2.5 µM; LDB = linsitinib 2 µM, dasatinib 50 nM, bemcentinib 100 nM
Experimental: as §3

H226B cells = test: MTT assay, viability of H226B cells; assay type: cell-based; conditions: Homo sapiens, 72 h, three days, read-out: IC50 against the viability
Experimental: as §1

97 tested kinases = test: Kinome-wide inhibition profiling (KINOMEscan, TREEspot); assay type: binding, human; conditions: 10 µM, > 65% inhibition
Water solubility = assay type: physicochemical
Toxicity test in mice = assay type: in vivo, FVB mice
Experimental: Blood was collected from euthanized mice under isoflurane-induced deep anesthesia by cardiac puncture. After allowing blood coagulation at 4 °C, serum was collected by centrifugation at 3,000 rpm for 10 min at 4 °C. Analysis of the serum levels of alanine aminotransferase (ALT) and aspartate aminotransferase (AST) was performed using a veterinary hematology analyzer (Fuji DRI-Chem 3500s, Fujifilm, Tokyo, Japan) according to the manufacturer' s protocols.

H226Br cells = test: MTT assay, viability of H226Br cells; assay type: cell-based; conditions: Homo sapiens, 72 h, three days, read-out: IC50 against the viability
Experimental: as §1

[3] = LL6-treated mice vs vehicle-treated control

Nc1ncnc2c1c(-c1ccc(Cl)cc1)nn2CCn1cc(COc2ccc(Nc3nccc(Nc4cnc5ccccc5c4)n3)cc2)nn1 [LL6]
activity at 10 µM (A549 cells; 72 h, A549, MTT assay, 10 μM, read-out: % cells growth at 10 μM): 6.4% | IC50 (A549 cells; 72 h, A549, MTT assay, three days, read-out: IC50 against the viability (Table S4)): 6.63 µM | IC50 (A549 cells; A549, MTT assay, read-out: IC50 against the viability of A549 cells (Table S2)): 2.59 µM | IC50 (H1993 cells): 7.79 µM | remaining binding at 10 µM (AURKB): 55% | remaining binding at 10 µM (ABL1-nonphosphorylated): 61% | remaining binding at 10 µM (ABL1-phosphorylated): 62% | remaining binding at 10 µM (AKT2): 77% | remaining binding at 10 µM [1]: 92% | remaining binding at 10 µM (AKT1): 100% | colony formation, anchorage-independent (NSCLC cells): significantly suppressed | metastatic tumor nodules in the lungs (LLC allografts): significantly decreased | IC50 (H1299 cells): 2.93 µM | activation (phosphorylation) of IGF-1R (IGF-1R): efficiently suppressed | IC50 (PC9 cells): > 10 µM | proapoptotic effects (PARP cleavage, chromatin condensation, sub-G1 phase) [2]: notably induced apoptosis | IC50 (H226B cells): 1.37 µM | S-score (97 tested kinases): 0.12 | water solubility (Water solubility): poor | histological alterations in major organs, including the lung and liver (Toxicity test in mice; H&E-stained tissues): did not cause detectable histological alterations | serum ALT level (Toxicity test in mice; [3]): remained unchanged | serum AST level (Toxicity test in mice; [3]): remained unchanged | body weight (Toxicity test in mice; mice, LL6 20, 40, and 80 mg/kg daily for 2 weeks): remained unchanged | IC50 (H226Br cells): 4.32 µM
